Patent US9340590B2 (priority 2011, dated 2016)
Like-named read-outs stand apart in the source and are kept apart here. Positions of bridges follow the written chain, without caps; N, C: chain ends. Residues, ends and D or L forms follow the SMILES beside them.

Molecular target: hNav1.7 (Homo sapiens, UniProt Q15858)
Test: cell-based
Assay type: cell-based
Settings: read-out: IWQ Use Nav1.7
[1] = IonWorks Quattro, clamped to −110 mV, depolarized to −10 mV, 5 min after compound, n=2

hNav1.7, sequence (Q15858 whole entry, looked up): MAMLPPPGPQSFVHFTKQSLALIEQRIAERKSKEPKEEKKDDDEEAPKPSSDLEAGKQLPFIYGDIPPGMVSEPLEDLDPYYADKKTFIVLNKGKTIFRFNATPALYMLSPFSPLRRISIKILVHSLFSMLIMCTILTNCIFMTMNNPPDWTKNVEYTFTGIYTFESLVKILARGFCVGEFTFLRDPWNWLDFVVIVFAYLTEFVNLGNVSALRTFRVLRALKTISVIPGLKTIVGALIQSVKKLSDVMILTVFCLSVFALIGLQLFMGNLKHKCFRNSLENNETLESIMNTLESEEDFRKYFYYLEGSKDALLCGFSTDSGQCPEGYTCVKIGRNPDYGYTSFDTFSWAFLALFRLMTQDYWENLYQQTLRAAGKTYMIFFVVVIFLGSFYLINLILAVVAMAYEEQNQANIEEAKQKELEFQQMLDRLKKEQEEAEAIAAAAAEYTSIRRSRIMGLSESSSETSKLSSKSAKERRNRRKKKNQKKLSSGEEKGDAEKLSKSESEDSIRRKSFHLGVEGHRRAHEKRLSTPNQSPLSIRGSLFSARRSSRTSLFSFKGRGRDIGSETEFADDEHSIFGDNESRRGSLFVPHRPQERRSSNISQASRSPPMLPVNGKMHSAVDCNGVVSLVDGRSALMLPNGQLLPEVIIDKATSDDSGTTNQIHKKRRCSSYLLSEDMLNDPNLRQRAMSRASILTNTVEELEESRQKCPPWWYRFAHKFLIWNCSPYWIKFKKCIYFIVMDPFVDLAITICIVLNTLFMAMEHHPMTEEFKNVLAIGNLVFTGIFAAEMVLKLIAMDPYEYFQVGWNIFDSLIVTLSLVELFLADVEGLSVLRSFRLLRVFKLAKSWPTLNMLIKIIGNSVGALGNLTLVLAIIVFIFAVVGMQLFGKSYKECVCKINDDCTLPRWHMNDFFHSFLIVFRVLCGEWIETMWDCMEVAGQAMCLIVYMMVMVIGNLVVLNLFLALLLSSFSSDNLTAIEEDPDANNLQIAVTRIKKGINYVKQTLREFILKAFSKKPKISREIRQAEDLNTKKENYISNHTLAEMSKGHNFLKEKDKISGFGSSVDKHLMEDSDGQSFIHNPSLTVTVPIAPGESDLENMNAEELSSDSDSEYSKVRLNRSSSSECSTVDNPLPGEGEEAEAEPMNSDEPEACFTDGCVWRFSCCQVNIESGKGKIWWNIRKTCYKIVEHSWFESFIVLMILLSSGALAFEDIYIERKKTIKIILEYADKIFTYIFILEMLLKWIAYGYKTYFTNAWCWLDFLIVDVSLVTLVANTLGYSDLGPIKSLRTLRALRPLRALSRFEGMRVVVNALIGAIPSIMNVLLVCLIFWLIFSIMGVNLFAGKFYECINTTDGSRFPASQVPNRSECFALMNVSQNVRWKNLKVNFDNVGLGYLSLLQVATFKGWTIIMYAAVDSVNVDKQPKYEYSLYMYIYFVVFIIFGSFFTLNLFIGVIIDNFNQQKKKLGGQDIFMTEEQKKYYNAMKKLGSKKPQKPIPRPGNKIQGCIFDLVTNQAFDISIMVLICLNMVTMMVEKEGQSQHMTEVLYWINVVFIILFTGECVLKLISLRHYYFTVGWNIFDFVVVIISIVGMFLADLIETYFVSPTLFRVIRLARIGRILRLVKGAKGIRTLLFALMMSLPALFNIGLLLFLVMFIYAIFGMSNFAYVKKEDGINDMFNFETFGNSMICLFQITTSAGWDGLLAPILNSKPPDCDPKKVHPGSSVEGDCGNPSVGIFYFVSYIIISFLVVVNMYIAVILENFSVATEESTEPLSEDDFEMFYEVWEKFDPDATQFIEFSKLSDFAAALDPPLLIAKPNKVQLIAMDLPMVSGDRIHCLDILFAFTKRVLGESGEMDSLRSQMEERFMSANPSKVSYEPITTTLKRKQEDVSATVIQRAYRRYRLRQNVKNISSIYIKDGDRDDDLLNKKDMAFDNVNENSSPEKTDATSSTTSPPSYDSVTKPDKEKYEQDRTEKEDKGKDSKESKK

With CC[C@H](C)[C@@H]1NC(=O)[C@@H]2CSSC[C@@H]3NC(=O)[C@H](C(C)C)NC(=O)[C@H](CC(C)C)NC(=O)[C@H](CC(N)=O)NC(=O)[C@@H]4CCCN4C(=O)[C@H](CCCNC(=N)N)NC(=O)[C@H](CSSC[C@H](NC(=O)[C@@H](N)CCCNC(=N)N)C(=O)N[C@@H](CC(C)C)C(=O)NCC(=O)N[C@@H](Cc4ccccc4)C(=O)N[C@@H](CCSC)C(=O)N[C@@H](CCCNC(=N)N)C(=O)N[C@@H](CCCCN)C(=O)N2)NC(=O)[C@H](CSSC[C@@H](C(=O)N[C@@H](CCCCN)C(=O)N[C@@H](Cc2ccc(O)cc2)C(=O)N[C@H](C(=O)N[C@@H](Cc2ccccc2)C(N)=O)C(C)C)NC(=O)[C@H](Cc2c[nH]c4ccccc24)NC(=O)[C@H](CCCCN)NC(=O)[C@H](Cc2c[nH]cn2)NC(=O)[C@H]([C@@H](C)O)NC(=O)[C@H](CCCNC(=N)N)NC(=O)[C@H](CO)NC3=O)NC(=O)[C@H](CCCCN)NC(=O)[C@H](CC(=O)O)NC(=O)[C@H](CC(N)=O)NC(=O)[C@H](CC(=O)O)NC(=O)[C@@H]2CCCN2C1=O [SEQ ID NO: 62] (H-RCLGFMRKCIPDNDKCCRPNLVCSRTHKWCKYVF-NH2; disulfide 2-17, 9-23, 16-30) the IC50 was 110 nM.

For CSCC[C@@H]1NC(=O)[C@H](Cc2ccccc2)NC(=O)CNC(=O)[C@H](CC(C)C)NC(=O)[C@@H](NC(=O)[C@@H](N)CC(=O)O)CSSC[C@@H]2NC(=O)[C@@H]3CSSC[C@@H](C(=O)N[C@@H](CCCCN)C(=O)N[C@@H](Cc4ccc(O)cc4)C(=O)N[C@H](C(=O)N[C@@H](Cc4ccccc4)C(N)=O)C(C)C)NC(=O)[C@H](Cc4c[nH]c5ccccc45)NC(=O)[C@H](CCCCN)NC(=O)[C@H](Cc4c[nH]cn4)NC(=O)[C@H]([C@@H](C)O)NC(=O)[C@H](CCCNC(=N)N)NC(=O)[C@H](CO)NC(=O)[C@H](CSSC[C@H](NC(=O)[C@H](CCCCN)NC(=O)[C@H](CCCNC(=N)N)NC1=O)C(=O)N[C@@H](CC(=O)O)C(=O)N1CCC[C@H]1C(=O)N[C@@H](CC(=O)O)C(=O)N[C@@H](CC(N)=O)C(=O)N[C@@H](CC(=O)O)C(=O)N[C@@H](CCCCN)C(=O)N3)NC(=O)[C@H](C(C)C)NC(=O)[C@H](CC(C)C)NC(=O)[C@H](CC(N)=O)NC(=O)[C@@H]1CCCN1C(=O)[C@H](CCCNC(=N)N)NC2=O [SEQ ID NO: 119, [Asp10]GpTx-1] (H-DCLGFMRKCDPDNDKCCRPNLVCSRTHKWCKYVF-NH2; disulfide 2-17, 9-23, 16-30), the IC50 was 220 nM.

For CC[C@H](C)[C@@H]1NC(=O)[C@@H]2CSSC[C@@H]3NC(=O)[C@H](C(C)C)NC(=O)[C@H](CC(C)C)NC(=O)[C@H](CC(N)=O)NC(=O)[C@@H]4CCCN4C(=O)[C@H](CCCNC(=N)N)NC(=O)[C@H](CSSC[C@H](NC(=O)[C@@H](N)CC(=O)O)C(=O)N[C@@H](CC(C)C)C(=O)N[C@@H](C)C(=O)N[C@@H](Cc4ccccc4)C(=O)N[C@@H](CCSC)C(=O)N[C@@H](CCCNC(=N)N)C(=O)N[C@@H](CCCCN)C(=O)N2)NC(=O)[C@H](CSSC[C@@H](C(=O)N[C@@H](CCCCN)C(=O)N[C@@H](Cc2ccc(O)cc2)C(=O)N[C@H](C(=O)N[C@@H](Cc2ccccc2)C(N)=O)C(C)C)NC(=O)[C@H](Cc2c[nH]c4ccccc24)NC(=O)[C@H](CCCCN)NC(=O)[C@H](Cc2c[nH]cn2)NC(=O)[C@H]([C@@H](C)O)NC(=O)[C@H](CCCNC(=N)N)NC(=O)[C@H](CO)NC3=O)NC(=O)[C@H](CCCCN)NC(=O)[C@H](CC(=O)O)NC(=O)[C@H](CC(N)=O)NC(=O)[C@H](CC(=O)O)NC(=O)[C@@H]2CCCN2C1=O [SEQ ID NO: 141] (H-DCLAFMRKCIPDNDKCCRPNLVCSRTHKWCKYVF-NH2; disulfide 2-17, 9-23, 16-30), the IC50 [1] was 270 nM.

For CC[C@H](C)[C@@H]1NC(=O)[C@@H]2CSSC[C@@H]3NC(=O)[C@H](C(C)C)NC(=O)[C@H](CC(C)C)NC(=O)[C@H](CC(N)=O)NC(=O)[C@@H]4CCCN4C(=O)[C@H](CCCNC(=N)N)NC(=O)[C@H](CSSC[C@H](NC(=O)[C@@H](N)CC(=O)O)C(=O)N[C@@H](CC(C)C)C(=O)NCC(=O)N[C@@H](Cc4ccccc4)C(=O)N[C@@H](CCC(=O)O)C(=O)N[C@@H](CCCNC(=N)N)C(=O)N[C@@H](CCCCN)C(=O)N2)NC(=O)[C@H](CSSC[C@@H](C(=O)N[C@@H](CCCCN)C(=O)N[C@@H](Cc2ccc(O)cc2)C(=O)N[C@H](C(=O)N[C@@H](Cc2ccccc2)C(N)=O)C(C)C)NC(=O)[C@H](Cc2c[nH]c4ccccc24)NC(=O)[C@H](CCCCN)NC(=O)[C@H](Cc2c[nH]cn2)NC(=O)[C@H]([C@@H](C)O)NC(=O)[C@H](CCCNC(=N)N)NC(=O)[C@H](CO)NC3=O)NC(=O)[C@H](CCCCN)NC(=O)[C@H](CC(=O)O)NC(=O)[C@H](CC(N)=O)NC(=O)[C@H](CC(=O)O)NC(=O)[C@@H]2CCCN2C1=O [SEQ ID NO: 144] (H-DCLGFERKCIPDNDKCCRPNLVCSRTHKWCKYVF-NH2; disulfide 2-17, 9-23, 16-30), the IC50 [1] was 3510 nM.

CSCC[C@@H]1NC(=O)[C@H](Cc2ccccc2)NC(=O)CNC(=O)[C@H](CC(C)C)NC(=O)[C@@H](NC(=O)[C@@H](N)CC(=O)O)CSSC[C@@H]2NC(=O)[C@@H]3CSSC[C@@H](C(=O)N[C@@H](CCCCN)C(=O)N[C@@H](Cc4ccc(O)cc4)C(=O)N[C@H](C(=O)N[C@@H](Cc4ccccc4)C(N)=O)C(C)C)NC(=O)[C@H](Cc4c[nH]c5ccccc45)NC(=O)[C@H](CCCCN)NC(=O)[C@H](Cc4c[nH]cn4)NC(=O)[C@H]([C@@H](C)O)NC(=O)[C@H](CCCNC(=N)N)NC(=O)[C@H](CO)NC(=O)[C@H](CSSC[C@H](NC(=O)[C@H](CCCCN)NC(=O)[C@H](CCCNC(=N)N)NC1=O)C(=O)N[C@@H](CCC(=O)O)C(=O)N1CCC[C@H]1C(=O)N[C@@H](CC(=O)O)C(=O)N[C@@H](CC(N)=O)C(=O)N[C@@H](CC(=O)O)C(=O)N[C@@H](CCCCN)C(=O)N3)NC(=O)[C@H](C(C)C)NC(=O)[C@H](CC(C)C)NC(=O)[C@H](CC(N)=O)NC(=O)[C@@H]1CCCN1C(=O)[C@H](CCCNC(=N)N)NC2=O [SEQ ID NO: 146, [Glu10]GpTx-1] (H-DCLGFMRKCEPDNDKCCRPNLVCSRTHKWCKYVF-NH2; disulfide 2-17, 9-23, 16-30) gave an IC50 (IonWorks Quattro, Use) of 90 nM.

For CC[C@H](C)[C@@H]1NC(=O)[C@@H]2CSSC[C@@H]3NC(=O)[C@H](C(C)C)NC(=O)[C@H](CC(C)C)NC(=O)[C@H](CC(N)=O)NC(=O)[C@@H]4CCCN4C(=O)[C@H](CCCNC(=N)N)NC(=O)[C@H](CSSC[C@H](NC(=O)[C@@H](N)CC(=O)O)C(=O)N[C@@H](CC(C)C)C(=O)NCC(=O)N[C@@H](Cc4ccccc4)C(=O)N[C@@H](CCSC)C(=O)N[C@@H](CCCNC(=N)N)C(=O)N[C@@H](CCCCN)C(=O)N2)NC(=O)[C@H](CSSC[C@@H](C(=O)N[C@@H](CCCCN)C(=O)N[C@@H](Cc2ccc(O)cc2)C(=O)N[C@H](C(=O)N[C@@H](Cc2ccccc2)C(N)=O)C(C)C)NC(=O)[C@H](Cc2c[nH]c4ccccc24)NC(=O)[C@H](CCCCN)NC(=O)[C@H](Cc2c[nH]cn2)NC(=O)[C@H]([C@@H](C)O)NC(=O)[C@H](CCCNC(=N)N)NC(=O)[C@H](CO)NC3=O)NC(=O)[C@H](CCCCN)NC(=O)[C@H](CC(=O)O)NC(=O)[C@H](CC(N)=O)NC(=O)[C@H](CC(=O)O)NC(=O)[C@H](CCC(=O)O)NC1=O [SEQ ID NO: 147, [Glu11]GpTx-1] (H-DCLGFMRKCIEDNDKCCRPNLVCSRTHKWCKYVF-NH2; disulfide 2-17, 9-23, 16-30), the IC50 (IonWorks Quattro, Use) was 220 nM.

CC[C@H](C)[C@@H]1NC(=O)[C@@H]2CSSC[C@@H]3NC(=O)[C@H](C(C)C)NC(=O)[C@H](CC(C)C)NC(=O)[C@H](CC(N)=O)NC(=O)[C@@H]4CCCN4C(=O)[C@H](CCCNC(=N)N)NC(=O)[C@H](CSSC[C@H](NC(=O)[C@@H](N)CC(=O)O)C(=O)N[C@@H](CC(C)C)C(=O)NCC(=O)N[C@@H](Cc4ccccc4)C(=O)N[C@@H](CCSC)C(=O)N[C@@H](CCCNC(=N)N)C(=O)N[C@@H](CCCCN)C(=O)N2)NC(=O)[C@H](CSSC[C@@H](C(=O)N[C@@H](CCCCN)C(=O)N[C@@H](Cc2ccc(O)cc2)C(=O)N[C@H](C(=O)N[C@@H](Cc2ccccc2)C(N)=O)C(C)C)NC(=O)[C@H](Cc2c[nH]c4ccccc24)NC(=O)[C@H](CCC(=O)O)NC(=O)[C@H](Cc2c[nH]cn2)NC(=O)[C@H]([C@@H](C)O)NC(=O)[C@H](CCCNC(=N)N)NC(=O)[C@H](CO)NC3=O)NC(=O)[C@H](CCCCN)NC(=O)[C@H](CC(=O)O)NC(=O)[C@H](CC(N)=O)NC(=O)[C@H](CC(=O)O)NC(=O)[C@@H]2CCCN2C1=O [SEQ ID NO: 153, [Glu28]GpTx-1(1-34)] (H-DCLGFMRKCIPDNDKCCRPNLVCSRTHEWCKYVF-NH2; disulfide 2-17, 9-23, 16-30) was tested, and the IC50 (Table 23, IonWorks Quattro, use, […]) was 340 nM.

For CC[C@H](C)[C@@H]1NC(=O)[C@@H]2CSSC[C@@H]3NC(=O)[C@H](C(C)C)NC(=O)[C@H](CC(C)C)NC(=O)[C@H](CC(N)=O)NC(=O)[C@@H]4CCCN4C(=O)[C@H](CCCNC(=N)N)NC(=O)[C@H](CSSC[C@H](NC(=O)[C@@H](N)CC(=O)O)C(=O)N[C@@H](CCCNC(=N)N)C(=O)NCC(=O)N[C@@H](Cc4ccccc4)C(=O)N[C@@H](CCSC)C(=O)N[C@@H](CCCNC(=N)N)C(=O)N[C@@H](CCCCN)C(=O)N2)NC(=O)[C@H](CSSC[C@@H](C(=O)N[C@@H](CCCCN)C(=O)N[C@@H](Cc2ccc(O)cc2)C(=O)N[C@H](C(=O)N[C@@H](Cc2ccccc2)C(N)=O)C(C)C)NC(=O)[C@H](Cc2c[nH]c4ccccc24)NC(=O)[C@H](CCCCN)NC(=O)[C@H](Cc2c[nH]cn2)NC(=O)[C@H]([C@@H](C)O)NC(=O)[C@H](CCCNC(=N)N)NC(=O)[C@H](CO)NC3=O)NC(=O)[C@H](CCCCN)NC(=O)[C@H](CC(=O)O)NC(=O)[C@H](CC(N)=O)NC(=O)[C@H](CC(=O)O)NC(=O)[C@@H]2CCCN2C1=O [SEQ ID NO: 155] (H-DCRGFMRKCIPDNDKCCRPNLVCSRTHKWCKYVF-NH2; disulfide 2-17, 9-23, 16-30), the IC50 was 30 nM.
